In ChEMBL document CHEMBL5715949, “Discovery of a selective irreversible BMX inhibitor for prostate cancer” (ACS Chem Biol, 2013):
Active and inactive are the calls of the source. The calls are words filed in the database; no cut-off is given here.

Columns and labels:
[1] = target: Mitogen-activated protein kinase kinase kinase 11 (Homo sapiens) (UniProt Q16584); assay: Inhibition of MLK3 (unknown origin) assessed as remaining activity at 1 uM by Kinome scan method relative to control
[2] = target: Aurora kinase A (Homo sapiens) (UniProt O14965); assay: Inhibition of AURKA (unknown origin) assessed as remaining activity at 1 uM by Kinome scan method relative to control
[3] = target: Serine/threonine-protein kinase STK11 (Homo sapiens) (UniProt Q15831); assay: Inhibition of LKB1 (unknown origin) assessed as remaining activity at 1 uM by Kinome scan method relative to control
[4] = target: Serine/threonine-protein kinase 4 (Homo sapiens) (UniProt Q13043); assay: Inhibition of MST1 (unknown origin) assessed as remaining activity at 1 uM by Kinome scan method relative to control
[5] = target: Cyclin-dependent kinase-like 2 (Homo sapiens) (UniProt Q92772); assay: Inhibition of CDKL2 (unknown origin) assessed as remaining activity at 1 uM by Kinome scan method relative to control
[6] = target: Rhodopsin kinase GRK7 (Homo sapiens) (UniProt Q8WTQ7); assay: Inhibition of GRK7 (unknown origin) assessed as remaining activity at 1 uM by Kinome scan method relative to control
RV-1 [7] = assay: Induction of apoptosis in human RV-1 cells assessed as increase in cleaved caspase-3 protein expression at 5 uM incubated for 3 days by immunostaining analysis; format: functional, cell-based; conditions: time 3.0 day
[8] = target: cAMP-dependent protein kinase catalytic subunit PRKX (Homo sapiens) (UniProt P51817); assay: Inhibition of PRKX (unknown origin) assessed as remaining activity at 1 uM by Kinome scan method relative to control
[9] = target: Citron Rho-interacting kinase (Homo sapiens) (UniProt O14578); assay: Inhibition of CIT (unknown origin) assessed as remaining activity at 1 uM by Kinome scan method relative to control
RV-1 [10] = assay: Inhibition of MAPK signalling pathway in human RV-1 cells assessed as decrease in ERK1/2 phosphorylation at T202/204 residue at 2.5 uM incubated for 4 hrs by immunoblot analysis; format: cell-based
[11] = target: Serine/threonine-protein kinase RIO3 (Homo sapiens) (UniProt O14730); assay: Inhibition of RIOK3 (unknown origin) assessed as remaining activity at 1 uM by Kinome scan method relative to control
[12] = target: Tyrosine-protein kinase HCK (Homo sapiens) (UniProt P08631); assay: Inhibition of HCK (unknown origin) assessed as remaining activity at 1 uM by Kinome scan method relative to control
[13] = target: Cyclin-dependent kinase 18 (Homo sapiens) (UniProt Q07002); assay: Inhibition of PCTK3 (unknown origin) assessed as remaining activity at 1 uM by Kinome scan method relative to control
[14] = target: Tyrosine-protein kinase Lyn (Homo sapiens) (UniProt P07948); assay: Inhibition of LYN (unknown origin) assessed as remaining activity at 1 uM by Kinome scan method relative to control
[15] = target: Megakaryocyte-associated tyrosine-protein kinase (Homo sapiens) (UniProt P42679); assay: Inhibition of CTK (unknown origin) assessed as remaining activity at 1 uM by Kinome scan method relative to control
[16] = Inhibition of PI3K/AKT/mTOR signalling pathway in human RV-1 cells assessed as decrease in 4EBP phosphorylation at T37/46 residue at 2.5 uM incubated for 5 days by immunoblot analysis; format: cell-based; conditions: time 5.0 day
[17] = target: cGMP-dependent protein kinase 1 (Homo sapiens) (UniProt Q13976); assay: Inhibition of PRKG1 (unknown origin) assessed as remaining activity at 1 uM by Kinome scan method relative to control
[18] = target: Mitogen-activated protein kinase 1 (Homo sapiens) (UniProt P28482); assay: Inhibition of ERK2 (unknown origin) assessed as remaining activity at 1 uM by Kinome scan method relative to control
[19] = Inhibition of PI3K/AKT/mTOR signalling pathway in human RV-1 cells assessed as decrease in PRAS40 phosphorylation at T246 residue at 2.5 uM incubated for 4 hrs by immunoblot analysis; format: cell-based
[20] = target: Ribosomal protein S6 kinase alpha-1 (Homo sapiens) (UniProt Q15418); assay: Inhibition of C-terminal kinase domain RSK1 (unknown origin) assessed as remaining activity at 1 uM by Kinome scan method relative to control
[21] = target: Mitogen-activated protein kinase kinase kinase 7 (Homo sapiens) (UniProt O43318); assay: Inhibition of TAK1 (unknown origin) assessed as remaining activity at 1 uM by Kinome scan method relative to control
[22] = Down regulation of BMX protein expression in human RV-1 cells expressing wild type BMX assessed protein expression level at 2.5 uM pre incubated for 4 hrs followed by compound wash out and additon of CHX and measured after 16 hrs by immunoblot analysis (reference value: 0.98 to 1.01); format: functional
RV-1 [23] = assay: Antiproliferative activity against human RV-1 cells assessed as reduction in cell viability at 500 to 2500 nM incubated for 5 days in presence of GDC0941 by CellTiter-Glo assay; format: functional, cell-based; conditions: dose 500-2500 nM, time 5.0 day
[24] = target: Activin receptor type-2A (Homo sapiens) (UniProt P27037); assay: Inhibition of ACVR2A (unknown origin) assessed as remaining activity at 1 uM by Kinome scan method relative to control
[25] = Inhibition of PI3K/AKT/mTOR signalling pathway in human RV-1 cells assessed as decrease in AKT phosphorylation at S473 residue at 2.5 uM incubated for 4 hrs by immunoblot analysis; format: cell-based
[26] = target: Receptor-interacting serine/threonine-protein kinase 1 (Homo sapiens) (UniProt Q13546); assay: Inhibition of RIPK1 (unknown origin) assessed as remaining activity at 1 uM by Kinome scan method relative to control
[27] = target: Interleukin-1 receptor-associated kinase 4 (Homo sapiens) (UniProt Q9NWZ3); assay: Inhibition of IRAK4 (unknown origin) assessed as remaining activity at 1 uM by Kinome scan method relative to control
[28] = target: Tyrosine-protein kinase JAK2 (Homo sapiens) (UniProt O60674); assay: Inhibition of JAK2 JH1 domain (unknown origin) assessed as remaining activity at 1 uM by Kinome scan method relative to control
[29] = test system: Tyrosine-protein kinase ABL1 (Homo sapiens), P00519 [H396P]; assay: Inhibition of ABL1 H396P mutant (unknown origin) assessed as remaining activity at 1 uM by Kinome scan method relative to control
[30] = target: Insulin receptor (Homo sapiens) (UniProt P06213); assay: Inhibition of INSR (unknown origin) assessed as remaining activity at 1 uM by Kinome scan method relative to control
[31] = target: Phosphatidylinositol 5-phosphate 4-kinase type-2 gamma (Homo sapiens) (UniProt Q8TBX8); assay: Inhibition of PIP5K2C (unknown origin) assessed as remaining activity at 1 uM by Kinome scan method relative to control
[32] = target: Serine/threonine-protein kinase 10 (Homo sapiens) (UniProt O94804); assay: Inhibition of LOK (unknown origin) assessed as remaining activity at 1 uM by Kinome scan method relative to control
Serine/threonine-protein kinase 10 (Homo sapiens), sequence (O94804 whole entry, looked up): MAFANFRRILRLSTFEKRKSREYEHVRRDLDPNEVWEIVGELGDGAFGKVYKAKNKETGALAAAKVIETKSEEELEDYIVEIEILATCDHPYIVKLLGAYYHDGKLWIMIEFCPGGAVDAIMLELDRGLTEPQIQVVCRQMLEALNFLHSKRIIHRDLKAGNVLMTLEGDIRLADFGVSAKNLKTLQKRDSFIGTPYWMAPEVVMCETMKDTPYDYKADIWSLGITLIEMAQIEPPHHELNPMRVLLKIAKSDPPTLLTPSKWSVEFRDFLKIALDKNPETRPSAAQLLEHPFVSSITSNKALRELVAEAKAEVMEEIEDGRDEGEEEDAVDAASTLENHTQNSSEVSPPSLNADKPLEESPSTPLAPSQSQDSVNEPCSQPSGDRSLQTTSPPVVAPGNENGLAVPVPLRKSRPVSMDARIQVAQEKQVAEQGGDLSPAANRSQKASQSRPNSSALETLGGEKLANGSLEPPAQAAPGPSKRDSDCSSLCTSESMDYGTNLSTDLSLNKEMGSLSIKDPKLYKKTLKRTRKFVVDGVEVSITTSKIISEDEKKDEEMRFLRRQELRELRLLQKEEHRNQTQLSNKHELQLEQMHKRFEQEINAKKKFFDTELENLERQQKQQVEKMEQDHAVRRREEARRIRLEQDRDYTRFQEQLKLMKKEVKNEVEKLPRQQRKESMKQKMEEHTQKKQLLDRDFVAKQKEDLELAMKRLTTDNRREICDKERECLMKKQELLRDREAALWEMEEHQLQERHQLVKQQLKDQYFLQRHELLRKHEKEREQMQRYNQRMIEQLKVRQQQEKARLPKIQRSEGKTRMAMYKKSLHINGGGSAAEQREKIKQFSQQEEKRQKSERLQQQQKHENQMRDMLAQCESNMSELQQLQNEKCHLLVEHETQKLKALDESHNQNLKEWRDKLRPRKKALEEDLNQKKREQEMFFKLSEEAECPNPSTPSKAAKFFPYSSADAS

Megakaryocyte-associated tyrosine-protein kinase (Homo sapiens), sequence (P42679 whole entry): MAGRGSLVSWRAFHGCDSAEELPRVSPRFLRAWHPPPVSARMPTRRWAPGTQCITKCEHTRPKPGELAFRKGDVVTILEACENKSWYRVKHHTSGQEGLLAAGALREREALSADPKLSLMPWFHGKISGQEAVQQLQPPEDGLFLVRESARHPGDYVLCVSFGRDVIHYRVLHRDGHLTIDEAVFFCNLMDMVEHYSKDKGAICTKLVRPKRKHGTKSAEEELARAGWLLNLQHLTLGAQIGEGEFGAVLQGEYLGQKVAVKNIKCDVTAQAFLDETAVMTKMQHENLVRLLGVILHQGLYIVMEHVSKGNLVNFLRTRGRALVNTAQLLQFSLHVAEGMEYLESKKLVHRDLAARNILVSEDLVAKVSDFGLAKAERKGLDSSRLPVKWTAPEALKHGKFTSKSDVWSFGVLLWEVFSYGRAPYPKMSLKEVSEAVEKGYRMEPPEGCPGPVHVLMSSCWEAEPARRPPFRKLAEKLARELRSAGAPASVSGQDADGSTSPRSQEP
Serine/threonine-protein kinase 4 (Homo sapiens), sequence (Q13043 whole entry): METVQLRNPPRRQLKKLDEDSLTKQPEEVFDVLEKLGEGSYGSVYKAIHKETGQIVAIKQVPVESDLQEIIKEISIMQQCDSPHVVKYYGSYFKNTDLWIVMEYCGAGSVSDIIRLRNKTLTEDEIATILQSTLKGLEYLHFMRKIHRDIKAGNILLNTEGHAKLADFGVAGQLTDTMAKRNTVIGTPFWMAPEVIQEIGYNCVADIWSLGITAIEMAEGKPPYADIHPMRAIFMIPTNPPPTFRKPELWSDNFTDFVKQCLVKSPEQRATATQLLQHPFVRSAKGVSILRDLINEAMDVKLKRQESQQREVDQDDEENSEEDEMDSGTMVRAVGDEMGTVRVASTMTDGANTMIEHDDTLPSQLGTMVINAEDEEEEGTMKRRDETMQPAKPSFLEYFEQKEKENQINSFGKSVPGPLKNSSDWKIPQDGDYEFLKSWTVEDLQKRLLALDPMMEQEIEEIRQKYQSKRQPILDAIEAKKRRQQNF
Phosphatidylinositol 5-phosphate 4-kinase type-2 gamma (Homo sapiens), sequence (Q8TBX8 whole entry): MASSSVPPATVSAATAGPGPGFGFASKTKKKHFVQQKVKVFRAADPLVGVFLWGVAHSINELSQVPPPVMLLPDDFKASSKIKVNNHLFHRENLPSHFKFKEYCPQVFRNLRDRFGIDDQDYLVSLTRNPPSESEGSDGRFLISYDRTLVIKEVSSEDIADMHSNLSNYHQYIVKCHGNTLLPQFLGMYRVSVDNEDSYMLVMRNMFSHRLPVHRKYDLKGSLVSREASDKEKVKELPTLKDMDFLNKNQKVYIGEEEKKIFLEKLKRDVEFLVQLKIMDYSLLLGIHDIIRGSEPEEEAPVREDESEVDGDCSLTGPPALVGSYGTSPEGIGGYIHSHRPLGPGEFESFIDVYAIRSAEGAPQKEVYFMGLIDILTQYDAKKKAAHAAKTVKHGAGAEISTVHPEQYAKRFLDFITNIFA
Serine/threonine-protein kinase STK11 (Homo sapiens), sequence (Q15831 whole entry): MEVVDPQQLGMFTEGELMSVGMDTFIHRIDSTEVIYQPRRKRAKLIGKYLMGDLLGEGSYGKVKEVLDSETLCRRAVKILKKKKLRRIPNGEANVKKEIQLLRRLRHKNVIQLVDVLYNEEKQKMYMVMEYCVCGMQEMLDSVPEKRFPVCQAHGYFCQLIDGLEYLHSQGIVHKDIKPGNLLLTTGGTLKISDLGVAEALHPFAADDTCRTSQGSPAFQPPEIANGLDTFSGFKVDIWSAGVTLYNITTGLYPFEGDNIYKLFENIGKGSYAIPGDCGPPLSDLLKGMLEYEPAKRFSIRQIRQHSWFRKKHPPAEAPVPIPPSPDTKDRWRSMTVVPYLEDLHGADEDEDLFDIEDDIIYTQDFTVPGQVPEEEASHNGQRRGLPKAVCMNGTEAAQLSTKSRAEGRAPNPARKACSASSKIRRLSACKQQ
cGMP-dependent protein kinase 1 (Homo sapiens), sequence (Q13976 whole entry): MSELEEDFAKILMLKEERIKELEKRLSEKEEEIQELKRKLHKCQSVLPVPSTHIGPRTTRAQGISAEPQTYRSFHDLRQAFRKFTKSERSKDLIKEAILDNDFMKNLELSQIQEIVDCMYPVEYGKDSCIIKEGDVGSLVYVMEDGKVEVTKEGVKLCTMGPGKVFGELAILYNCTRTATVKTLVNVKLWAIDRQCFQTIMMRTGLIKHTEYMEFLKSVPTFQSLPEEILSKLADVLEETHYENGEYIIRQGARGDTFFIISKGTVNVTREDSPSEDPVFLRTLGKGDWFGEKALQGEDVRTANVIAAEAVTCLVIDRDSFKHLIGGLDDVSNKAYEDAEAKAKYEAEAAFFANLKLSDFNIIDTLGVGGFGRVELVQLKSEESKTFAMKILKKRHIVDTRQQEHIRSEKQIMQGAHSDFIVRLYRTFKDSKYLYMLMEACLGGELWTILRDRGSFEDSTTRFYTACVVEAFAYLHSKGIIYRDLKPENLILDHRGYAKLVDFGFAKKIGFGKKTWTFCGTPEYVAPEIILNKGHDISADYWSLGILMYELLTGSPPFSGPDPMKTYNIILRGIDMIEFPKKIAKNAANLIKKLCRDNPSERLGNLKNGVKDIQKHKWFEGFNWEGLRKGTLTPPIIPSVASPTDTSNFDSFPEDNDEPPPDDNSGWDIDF
Cyclin-dependent kinase-like 2 (Homo sapiens), sequence (Q92772 whole entry): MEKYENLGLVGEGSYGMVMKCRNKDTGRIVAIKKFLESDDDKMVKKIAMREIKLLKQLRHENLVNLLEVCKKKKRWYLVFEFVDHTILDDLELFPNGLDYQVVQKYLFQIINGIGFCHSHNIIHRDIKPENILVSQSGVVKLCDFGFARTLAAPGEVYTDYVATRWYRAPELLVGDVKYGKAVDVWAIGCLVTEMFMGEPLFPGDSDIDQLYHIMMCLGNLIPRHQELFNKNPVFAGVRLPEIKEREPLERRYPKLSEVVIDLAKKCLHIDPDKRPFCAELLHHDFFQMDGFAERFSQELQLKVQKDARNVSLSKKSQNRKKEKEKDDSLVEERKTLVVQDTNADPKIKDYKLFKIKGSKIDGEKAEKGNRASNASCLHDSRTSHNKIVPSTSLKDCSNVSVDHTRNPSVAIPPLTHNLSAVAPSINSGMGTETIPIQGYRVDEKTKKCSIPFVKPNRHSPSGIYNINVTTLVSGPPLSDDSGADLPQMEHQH
Aurora kinase A (Homo sapiens), sequence (O14965 whole entry): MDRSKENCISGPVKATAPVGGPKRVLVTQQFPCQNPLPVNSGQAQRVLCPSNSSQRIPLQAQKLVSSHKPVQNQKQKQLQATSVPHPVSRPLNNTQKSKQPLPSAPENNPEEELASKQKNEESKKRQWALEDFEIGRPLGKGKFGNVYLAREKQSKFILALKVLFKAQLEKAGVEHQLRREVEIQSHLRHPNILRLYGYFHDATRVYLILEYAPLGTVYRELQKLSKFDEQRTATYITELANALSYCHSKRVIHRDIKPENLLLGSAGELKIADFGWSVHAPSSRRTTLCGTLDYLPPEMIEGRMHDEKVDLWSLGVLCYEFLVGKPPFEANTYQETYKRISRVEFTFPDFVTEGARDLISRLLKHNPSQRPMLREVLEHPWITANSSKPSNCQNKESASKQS
cAMP-dependent protein kinase catalytic subunit PRKX (Homo sapiens), sequence (P51817 whole entry): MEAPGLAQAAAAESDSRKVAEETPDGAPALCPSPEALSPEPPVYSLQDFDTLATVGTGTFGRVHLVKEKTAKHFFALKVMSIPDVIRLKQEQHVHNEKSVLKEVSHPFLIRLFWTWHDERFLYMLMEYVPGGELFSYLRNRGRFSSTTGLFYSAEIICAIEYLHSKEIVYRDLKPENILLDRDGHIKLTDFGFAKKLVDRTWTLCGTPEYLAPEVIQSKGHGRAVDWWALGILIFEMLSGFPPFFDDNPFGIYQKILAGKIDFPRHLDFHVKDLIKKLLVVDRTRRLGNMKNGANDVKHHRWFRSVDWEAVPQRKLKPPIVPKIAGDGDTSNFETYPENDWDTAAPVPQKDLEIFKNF

C=CC(=O)Nc1cc(-n2c(=O)ccc3cnc4ccc(-c5ccc(NS(C)(=O)=O)cc5)cc4c32)ccc1C
Activity [1]: 91% | Activity [2]: 75% | Activity [3]: 79% | Activity [4]: 92% | Activity [5]: 93% | Activity [6]: 75% | Activity (RV-1 [7]): Active | Activity [8]: 77% | Activity [9]: 83% | inhibition (RV-1 [10]): inactive | Activity [11]: 55% | Activity [12]: 97% | Activity [13]: 83% | Activity [14]: 92% | Activity [15]: 92% | inhibition [16]: Active | Activity [17]: 87% | Activity [18]: 94% | inhibition [19]: inactive | Activity [20]: 91% | Activity [21]: 83% | Activity [22]: 0.28 | Activity (RV-1 [23]): Active | Activity [24]: 94% | inhibition [25]: inactive | Activity [26]: 87% | Activity [27]: 84% | Activity [28]: 86% | Activity [29]: 74% | Activity [30]: 93% | Activity [31]: 5.6% | Activity [32]: 87%
